Experimental data reported in paper PMC7366380, “Discovery of a Potent and Selective Covalent Inhibitor and Activity-Based Probe for the Deubiquitylating Enzyme UCHL1, with Antifibrotic Activity” (Journal of the American Chemical Society, 2020).
Several values for one entry are separate records, joined by “and”; a condition that tells them apart may be missing. Identical values can stand only once. Values belong to the compound of their own block, whether it stands above or below them.

Key:
[1] = test system: primary human bronchial fibroblasts from IPF patients
in vitro = conditions: human
FGFR2 = FGFR2 (Homo sapiens, UniProt P21802); test: In-cell proteome-wide competitive ABPP, HEK293: FGFR2; conditions: HEK293, compound 60 min, then 2 (20 nM) 10 min
UCHL1 [2] = molecular target: T1, UCHL1 (Homo sapiens, UniProt P09936); test: UCHL1 inhibitor kinetic analysis (Ub-AMC fluorescence intensity); assay type: biochemical; set-up: rapidly targets endogenous UCHL1 in cells; endogenous in cells; host or cells: HEK293; conditions: UCHL1 3 nM, Ub-AMC 130 nM; read-out: kobs/I
T1 sequence (P09936 1-223): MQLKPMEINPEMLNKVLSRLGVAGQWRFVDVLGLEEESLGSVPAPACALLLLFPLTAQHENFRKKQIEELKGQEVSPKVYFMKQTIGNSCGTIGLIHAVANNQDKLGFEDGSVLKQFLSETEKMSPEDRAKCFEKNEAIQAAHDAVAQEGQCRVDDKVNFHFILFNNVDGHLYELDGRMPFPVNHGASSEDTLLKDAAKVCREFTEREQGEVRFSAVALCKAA

[3] = molecular target: DUBs and other proteins in HEK293 cells (Homo sapiens, UniProt Q6P2Q9); test: Quantitative chemical proteomic profiling of ABP 2 in HEK293 cells: other DUBs and proteins across the proteome; conditions: PRPF8, listed as ABP 2
[4] = molecular target: DUBs and other proteins in HEK293 cells (Homo sapiens, UniProt P54578); test: as above; conditions: USP14, listed as ABP 2
[5] = molecular target: T2, DUBs and other proteins in HEK293 cells (Homo sapiens, UniProt Q53GS9); test: as above; conditions: USP39
T2 sequence (Q53GS9 1-565): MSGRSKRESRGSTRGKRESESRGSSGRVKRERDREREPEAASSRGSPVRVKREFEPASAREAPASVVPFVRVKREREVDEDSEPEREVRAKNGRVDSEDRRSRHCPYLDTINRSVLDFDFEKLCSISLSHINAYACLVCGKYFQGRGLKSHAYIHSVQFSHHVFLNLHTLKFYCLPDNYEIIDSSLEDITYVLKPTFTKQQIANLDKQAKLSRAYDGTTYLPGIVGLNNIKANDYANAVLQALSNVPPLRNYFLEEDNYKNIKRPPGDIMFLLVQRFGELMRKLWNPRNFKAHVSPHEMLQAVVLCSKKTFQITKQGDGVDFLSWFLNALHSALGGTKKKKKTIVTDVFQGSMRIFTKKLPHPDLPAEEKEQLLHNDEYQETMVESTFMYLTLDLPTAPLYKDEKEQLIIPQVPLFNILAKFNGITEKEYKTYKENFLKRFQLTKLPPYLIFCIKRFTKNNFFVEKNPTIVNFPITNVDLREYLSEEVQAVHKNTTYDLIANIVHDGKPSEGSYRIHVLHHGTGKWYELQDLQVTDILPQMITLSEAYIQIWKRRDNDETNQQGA

[6] = molecular target: fibroblast growth factor receptor 2 (FGFR2) (Homo sapiens, UniProt P21802); test: Quantitative chemical proteomic profiling of ABP 2 in HEK293 cells: FGFR2; conditions: HEK293, 20 nM
UCHL1 [7] = molecular target: T1, UCHL1; test: Quantitative chemical proteomic profiling of ABP 2 in HEK293 cells (AzRB enrichment, TMT): UCHL1; conditions: for Log2 reporter intensity values (Log2FC, DMSO substract): UCHL1, listed as ABP 2
[8] = ABP 2 stability in cell culture medium (in-gel fluorescence readout); conditions: DMEM medium, 37 °C, then 1 h on HEK293 cells
EIF3H = EIF3H (Homo sapiens, UniProt O15372); test: Quantitative chemical proteomic profiling of ABP 2 in HEK293 cells: EIF3H; conditions: for Log2 reporter intensity values (Log2FC, DMSO substract): EIF3H, listed as ABP 2
EIF3F = EIF3F (Homo sapiens, UniProt O00303); test: Quantitative chemical proteomic profiling of ABP 2 in HEK293 cells: EIF3F; conditions: for Log2 reporter intensity values (Log2FC, DMSO substract): EIF3F, listed as ABP 2
[9] = 200 nM, 180 min, replicates A,C
[10] = HEK293, 2 nM vs DMSO, 1 h, enrichment, TMT, n=3
[11] = HEK293, 20 nM vs DMSO, 1 h, enrichment, TMT, n=3
[12] = HEK293, 200 nM vs DMSO, 1 h, enrichment, TMT, n=3

Chain of DUBs and other proteins in HEK293 cells (Homo sapiens, UniProt P54578) (P54578 whole entry): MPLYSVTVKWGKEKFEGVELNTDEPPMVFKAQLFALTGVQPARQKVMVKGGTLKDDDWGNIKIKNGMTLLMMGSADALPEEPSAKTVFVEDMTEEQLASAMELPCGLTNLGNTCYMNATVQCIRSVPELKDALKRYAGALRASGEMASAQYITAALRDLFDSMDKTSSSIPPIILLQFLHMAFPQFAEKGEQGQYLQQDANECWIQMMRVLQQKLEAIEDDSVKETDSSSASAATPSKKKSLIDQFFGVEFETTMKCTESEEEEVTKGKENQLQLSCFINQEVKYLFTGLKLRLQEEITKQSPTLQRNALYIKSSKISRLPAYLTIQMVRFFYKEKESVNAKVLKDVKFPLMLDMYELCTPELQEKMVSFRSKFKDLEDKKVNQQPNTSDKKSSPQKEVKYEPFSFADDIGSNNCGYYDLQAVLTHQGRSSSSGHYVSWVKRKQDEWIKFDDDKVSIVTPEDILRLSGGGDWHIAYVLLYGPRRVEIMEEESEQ
Chain of fibroblast growth factor receptor 2 (FGFR2) (P21802 22-821): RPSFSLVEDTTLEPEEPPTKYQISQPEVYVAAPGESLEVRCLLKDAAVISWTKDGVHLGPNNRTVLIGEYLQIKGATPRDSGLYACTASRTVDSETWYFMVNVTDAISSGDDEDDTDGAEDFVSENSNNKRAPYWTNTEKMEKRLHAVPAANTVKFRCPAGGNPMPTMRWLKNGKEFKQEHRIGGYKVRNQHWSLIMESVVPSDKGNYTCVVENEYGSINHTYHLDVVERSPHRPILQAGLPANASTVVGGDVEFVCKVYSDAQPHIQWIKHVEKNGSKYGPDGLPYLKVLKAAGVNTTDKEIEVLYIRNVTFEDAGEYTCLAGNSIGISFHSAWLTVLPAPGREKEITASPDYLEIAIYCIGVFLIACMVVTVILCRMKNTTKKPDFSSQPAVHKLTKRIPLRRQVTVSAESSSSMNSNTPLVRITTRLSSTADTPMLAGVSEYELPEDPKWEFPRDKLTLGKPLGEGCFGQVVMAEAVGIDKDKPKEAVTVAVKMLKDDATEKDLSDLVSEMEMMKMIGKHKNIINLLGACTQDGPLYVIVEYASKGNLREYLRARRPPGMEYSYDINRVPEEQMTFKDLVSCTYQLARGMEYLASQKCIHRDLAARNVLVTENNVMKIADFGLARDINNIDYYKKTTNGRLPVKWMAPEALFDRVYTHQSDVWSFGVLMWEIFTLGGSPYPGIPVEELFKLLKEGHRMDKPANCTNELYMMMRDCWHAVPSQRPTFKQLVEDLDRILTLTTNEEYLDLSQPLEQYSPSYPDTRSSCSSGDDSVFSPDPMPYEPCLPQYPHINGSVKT
Chain of FGFR2 (P21802 22-821): as above

Compound: CC(=O)O/N=C1\C(=O)N(Cc2cc(Cl)ccc2Cl)c2ccc(Cl)cc21 [LDN-57444, reference compound]
cytotoxicity (in words) [1]: increased cytotoxicity
EC50 at 3 days (in vitro): ~9.2 µM

FGFR2 response in proteome-wide competitive ABPP (FGFR2): responds
kinact/KI (UCHL1 [2]): 7400 M⁻¹ s⁻¹
Compound: N#CN1CCC[C@H]1C(=O)N1CCc2c(-c3c[nH]c4ncccc34)cccc21 [Compound 1]

Log2 reporter intensity values (Log2FC, DMSO substract) ([3]; 2 nM, 60 min, replicates A-C): -0.06588 and -0.04701 and -0.09225
Log2 reporter intensity values (Log2FC, DMSO substract) ([3]; 20 nM, 10 min, replicates B,C): -0.04258 and -0.0756
Log2 reporter intensity values (Log2FC, DMSO substract) ([3]; 20 nM, 60 min, replicates A-C): -0.1603 and -0.1771 and -0.09715
Log2 reporter intensity values (Log2FC, DMSO substract) ([3]; 20 nM, 180 min, replicates A-C): -0.4052 and -0.02523 and -0.1285
Log2 reporter intensity values (Log2FC, DMSO substract) ([3]; 200 nM, 10 min, replicates B,C): -0.213 and -0.1784
Log2 reporter intensity values (Log2FC, DMSO substract) ([3]; 200 nM, 60 min, replicates A-C): 0.0802 and -0.1457 and -0.1731
Log2 reporter intensity values (Log2FC, DMSO substract) [3, 9]: -0.0003694 and 0.003479
Log2 reporter intensity values (Log2FC, DMSO substract) ([4]; 2 nM, 60 min, replicates A-C): 0.01071 and 0.05631 and -0.04364
Log2 reporter intensity values (Log2FC, DMSO substract) ([4]; 20 nM, 10 min, replicates B,C): 0.009394 and 0.07693
Log2 reporter intensity values (Log2FC, DMSO substract) ([4]; 20 nM, 60 min, replicates A-C): 0.05332 and 0.1025
Log2 reporter intensity values (Log2FC, DMSO substract) ([4]; 20 nM, 180 min, replicates A-C): 0.1385 and 0.1351 and 0.05551
Log2 reporter intensity values (Log2FC, DMSO substract) ([4]; 200 nM, 10 min, replicates B,C): 0.1048
Log2 reporter intensity values (Log2FC, DMSO substract) ([4]; 200 nM, 60 min, replicates A-C): 0.05455 and 0.04834 and 0.1109
Log2 reporter intensity values (Log2FC, DMSO substract) [4, 9]: -0.08272 and -0.01544
Log2 reporter intensity values (Log2FC, DMSO substract) ([5]; 2 nM, 60 min, replicates A-C, listed as ABP 2): 0.1489 and -0.6669
Log2 reporter intensity values (Log2FC, DMSO substract) ([5]; 20 nM, 10 min, replicates B,C): 0.2437
Log2 reporter intensity values (Log2FC, DMSO substract) ([5]; 20 nM, 60 min, replicates A-C, listed as ABP 2): 0.1765 and 0.5295
Log2 reporter intensity values (Log2FC, DMSO substract) ([5]; 20 nM, 180 min, replicates A-C, listed as ABP 2): 0.1037 and 0.2866
Log2 reporter intensity values (Log2FC, DMSO substract) ([5]; 200 nM, 10 min, replicates B,C): 0.594
Log2 reporter intensity values (Log2FC, DMSO substract) ([5]; 200 nM, 60 min, replicates A-C, listed as ABP 2): 0.3986 and 0.5245
Log2 reporter intensity values (Log2FC, DMSO substract) [5, 9]: 0.3314
FGFR2 enrichment (chemical proteomics) [6]: significantly enriched
Log2 t-test Difference, UCHL1, 2 nM (UCHL1 [7]; [10]): 1.208
Log2 t-test Difference, UCHL1, 20 nM (UCHL1 [7]; [11]): 2.871
Log2 t-test Difference, UCHL1, 200 nM (UCHL1 [7]; [12]): 3.757
UCHL1 enrichment (chemical proteomics) (UCHL1 [7]; HEK293, 2, 20 or 200 nM, 10, 60 or 180 min): significantly enriched
Log2 reporter intensity values (Log2FC, DMSO substract) (UCHL1 [7]; 2 nM, 60 min, replicates A-C): 1.19 and 1.075
Log2 reporter intensity values (Log2FC, DMSO substract) (UCHL1 [7]; 20 nM, 10 min, replicates B,C): 2.249 and 2.237
Log2 reporter intensity values (Log2FC, DMSO substract) (UCHL1 [7]; 20 nM, 60 min, replicates A-C): 3.049 and 2.943 and 2.622
Log2 reporter intensity values (Log2FC, DMSO substract) (UCHL1 [7]; 20 nM, 180 min, replicates A-C): 2.8835 and 2.817 and 2.539
Log2 reporter intensity values (Log2FC, DMSO substract) (UCHL1 [7]; 200 nM, 10 min, replicates B,C): 3.8701 and 3.284
Log2 reporter intensity values (Log2FC, DMSO substract) (UCHL1 [7]; 200 nM, 60 min, replicates A-C): 3.775 and 4.082 and 3.414
Log2 reporter intensity values (Log2FC, DMSO substract) (UCHL1 [7]; [9]): 3.588 and 3.369
stability in media without loss of activity [8]: > 72 h
Log2 reporter intensity values (Log2FC, DMSO substract) (EIF3H; 2 nM, 60 min, replicates A-C): 0.03927 and 0.1861 and 0.1127
Log2 reporter intensity values (Log2FC, DMSO substract) (EIF3H; 20 nM, 10 min, replicates B,C): 0.003189 and 0.05275
Log2 reporter intensity values (Log2FC, DMSO substract) (EIF3H; 20 nM, 60 min, replicates A-C): 0.08479 and -0.05372 and 0.1466
Log2 reporter intensity values (Log2FC, DMSO substract) (EIF3H; 20 nM, 180 min, replicates A-C): -0.0501 and -0.006928 and -0.004662
Log2 reporter intensity values (Log2FC, DMSO substract) (EIF3H; 200 nM, 10 min, replicates B,C): 0.1905 and -0.004432
Log2 reporter intensity values (Log2FC, DMSO substract) (EIF3H; 200 nM, 60 min, replicates A-C): 0.08499 and -0.02572 and 0.1313
Log2 reporter intensity values (Log2FC, DMSO substract) (EIF3H; [9]): -0.03275 and 0.07608
Log2 t-test Difference, EIF3H, 2 nM (EIF3H; [10]): 0.1127
Log2 t-test Difference, EIF3H, 20 nM (EIF3H; [11]): 0.05921
Log2 t-test Difference, EIF3H, 200 nM (EIF3H; [12]): 0.06352
Log2 reporter intensity values (Log2FC, DMSO substract) (EIF3F; 2 nM, 60 min, replicates A-C): 0.2006 and 0.08743 and 0.3363
Log2 reporter intensity values (Log2FC, DMSO substract) (EIF3F; 20 nM, 10 min, replicates B,C): 0.2292 and 0.2562
Log2 reporter intensity values (Log2FC, DMSO substract) (EIF3F; 20 nM, 60 min, replicates A-C): 0.2037 and 0.07421 and -0.06904
Log2 reporter intensity values (Log2FC, DMSO substract) (EIF3F; 20 nM, 180 min, replicates A-C): 0.329 and 0.1016 and 0.09094
Log2 reporter intensity values (Log2FC, DMSO substract) (EIF3F; 200 nM, 10 min, replicates B,C): 0.1208 and 0.2271
Log2 reporter intensity values (Log2FC, DMSO substract) (EIF3F; 200 nM, 60 min, replicates A-C): 0.222 and -0.03463 and 0.3157
Log2 reporter intensity values (Log2FC, DMSO substract) (EIF3F; [9]): 0.2814 and 0.1468
Log2 t-test Difference, EIF3F, 20 nM (EIF3F; [11]): 0.06962
Log2 t-test Difference, EIF3F, 200 nM (EIF3F; [12]): 0.1677
Compound: C#Cc1cnc2[nH]cc(-c3cccc4c3CCN4C(=O)[C@@H]3CCCN3C#N)c2c1 [Compound 2]
